Results as given in ChEMBL document CHEMBL4308868 (Bioorg Med Chem Lett, 2019).

Biological target: T1, Tyrosinase (Agaricus bisporus, UniProt O42713)
T1 sequence (O42713 whole entry): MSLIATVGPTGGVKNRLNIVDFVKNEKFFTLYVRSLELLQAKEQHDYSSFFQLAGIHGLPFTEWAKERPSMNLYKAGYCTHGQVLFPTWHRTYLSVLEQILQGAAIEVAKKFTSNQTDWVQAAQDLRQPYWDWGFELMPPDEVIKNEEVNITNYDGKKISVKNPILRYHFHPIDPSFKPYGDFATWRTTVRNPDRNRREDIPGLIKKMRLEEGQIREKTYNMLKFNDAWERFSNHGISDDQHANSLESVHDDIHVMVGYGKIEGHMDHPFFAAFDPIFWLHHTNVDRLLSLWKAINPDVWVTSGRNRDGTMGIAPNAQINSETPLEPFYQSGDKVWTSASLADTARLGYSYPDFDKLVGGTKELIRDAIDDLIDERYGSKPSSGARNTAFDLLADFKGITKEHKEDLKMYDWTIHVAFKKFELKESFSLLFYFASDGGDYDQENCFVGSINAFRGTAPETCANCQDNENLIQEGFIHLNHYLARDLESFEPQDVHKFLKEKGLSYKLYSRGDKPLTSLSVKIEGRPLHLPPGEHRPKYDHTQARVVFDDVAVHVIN
Description: Inhibition of mushroom tyrosinase using L-tyrosine as substrate measured after 20 mins by spectrophotometric method

IC50 [µM]	Compound
> 500	CCOc1cc(C(C)C)c(C(=O)CCC(=O)OCc2ccccc2)cc1C
> 500	CCOc1cc(C(C)C)ccc1C
102	C/C=C/COC(=O)CCC(=O)c1cc(C(C)C)c(OCC)cc1C
> 500	CCOc1cc(C(C)C)c(C(=O)CCC(=O)OC)cc1C
> 500	CCOc1cc(C)ccc1C(C)C
218	CCCOC(=O)CCC(=O)c1cc(C)c(OCC)cc1C(C)C
191	CCCCOC(=O)CCC(=O)c1cc(C(C)C)c(OCC)cc1C
126	C=CCOC(=O)CCC(=O)c1cc(C(C)C)c(OCC)cc1C
> 500	CCOc1cc(C)c(C(=O)CCC(=O)OCc2ccccc2)cc1C(C)C
> 500	CCOc1cc(C)c(C(=O)CCC(=O)OC)cc1C(C)C
176	CCCCOC(=O)CCC(=O)c1cc(C)c(OCC)cc1C(C)C
154	CCCOC(=O)CCC(=O)c1cc(C(C)C)c(OCC)cc1C
212	CCOC(=O)CCC(=O)c1cc(C(C)C)c(OCC)cc1C
244	C/C=C/COC(=O)CCC(=O)c1cc(C)c(OCC)cc1C(C)C
> 500	CCOC(=O)CCC(=O)c1cc(C)c(OCC)cc1C(C)C
> 500	CCOc1cc(C)c(C(=O)CCC(=O)O)cc1C(C)C
> 500	CCOc1cc(C(C)C)c(C(=O)CCC(=O)O)cc1C
> 500	Cc1ccc(C(C)C)cc1O [CARVACROL]
